Measured values reported in ChEMBL document CHEMBL1150963, “Five new polyacetylenes from a sponge of the genus petrosia” (1998).

Tests used:
K562 = test: Cytotoxicity against human K562 cells; assay type: functional; settings: read-out: LC50 (the source's name)
[1] = biological target: Phospholipase A2 (Homo sapiens) (UniProt P04054); test: Inhibition of PLA2 at 50 ug/ml
Chain of Phospholipase A2 (Homo sapiens) (P04054 23-148 limits assumed): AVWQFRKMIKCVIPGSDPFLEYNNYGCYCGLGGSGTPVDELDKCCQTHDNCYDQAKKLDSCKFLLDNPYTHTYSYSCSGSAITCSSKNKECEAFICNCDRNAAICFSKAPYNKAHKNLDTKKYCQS

Work on `C#C/C=C\CCCCCCCCCCCCCC/C=C\CCCC/C=C\CCCCC#C[C@H](O)C#CCCCCCCCC[C@H](O)C#C` [PETROCORTYNE D] yielded a CC50 (K562) of 45 µM.
`C#C/C=C\CCCCCCCCCCCCCC/C=C\CCC/C=C/C(O)CCCCC#C[C@H](O)C#CCCCCCC/C=C/[C@@H](O)C#C` (some centres undefined) [PETROCORTYNE E] was tested, and the CC50 (K562) was 7 µM and the inhibition [1] was 48%.
Compound `C#C/C=C\CCCCCCCCCCCCCCC(O)/C=C/CCC/C=C\CCCCC#C[C@H](O)C#CCCCCCC/C=C/[C@@H](O)C#C` (some centres undefined) [PETROCORTYNE H] has a CC50 (K562) of 11 µM and an inhibition [1] of 32%.
In the case of `C#C/C=C\CCCCCCCCCCCCC/C=C/C(O)CCCC/C=C\CCCCC#C[C@H](O)C#CCCCCCC/C=C/[C@@H](O)C#C` (some centres undefined) [PETROCORTYNE G], the CC50 (K562) is reported as 30 µM and the inhibition [1] is reported as 36%.
`C#C/C=C\CCCCCCCCCCCCCC/C=C\CCCCC(O)/C=C/CCCC#C[C@H](O)C#CCCCCCC/C=C/[C@@H](O)C#C` (some centres undefined) [PETROCORTYNE F] showed a CC50 (K562) of 21 µM and an inhibition [1] of 25%.
